Source: US11208405B2, “Pyrrole derivatives as PLK1 inhibitors” (SENTINEL ONCOLOGY LIMITED, priority 2017, dated 2021)

How the values were obtained:
Format in all cases: cell-based
KRAS G12V HeLa cell line = assay: Wild-type versus KRAS HeLa cell viability: oncogenic KrasG12V transgene; settings: Homo sapiens; HeLa cells expressing KRAS G12V, 72 hours
Description: (§1) Assay to Measure the Effects of Compounds of the Invention on Wild-Type Versus KRAS HeLa Cell Viability
(§2) Identifying synthetic lethal interactions between targeted small molecule therapies and characterised oncogenic mutations is a goal of modern oncology drug discovery efforts. To this end, PLK1-PBD inhibitors were tested on HeLa cells engineered to inducibly express wild-type or oncogenic KrasG12V transgenes using the FLP-in/T-Rex system (Invitrogen). Cells were plated, and then treated with or without Doxycycline to induce transgene expression, and then treated with serially-diluted PBD inhibitors. After 72 hours of incubation, cell viability was assessed using the Cell Titre Blue reagent (Promega) and a BMG Pherastar plate reader. The effect of PBD inhibition on cell viability with either wild-type or oncogenic G12V KRAS was assessed using the graphing/curve-fitting packages in GraphPad Prism.

HCT116 cells = assay: Effects on HCT116 colorectal cancer cell viability (cell titre blue, 72 hours); settings: Homo sapiens, HCT-116, HCT116 cell line
wild-type HeLa cell line = assay: Wild-type versus KRAS HeLa cell viability: wild-type KRAS transgene; settings: Homo sapiens; HeLa cells expressing wild-type KRAS, 72 hours; read-out: WT GI50
Description: as §1, §2

HeLa cells = assay: Arresting cells in mitosis (Mitotic Index, phosphorylated Histone H3 immunofluorescence); settings: HeLa cell line, 24 hours; for EC50: Homo sapiens, Mitotic Index, read-out: EC50
Description: Assay to Measure the Effects of Compounds of the Invention on Arresting Cells in Mitosis
Inhibiting the ability of PLK1 to bind to its phosphopeptide binding partners through the PBD causes cells to arrest in mitosis. Experimentally, this is measured by assessing the number of cells which are in mitosis at a certain time after treatment with a PLK1-PBD inhibitor by immunofluorescent detection of phosphorylated Histone H3 (pH3), a marker which is only present in mitotic cells. PLK1-PBD inhibitors are expected to cause a dose-dependent increase in pH3-positive cells, which is reported as Mitotic Index (MI)—the percentage of cells which, at a given time, are positive for this mitotic mark. The following protocol has been used to measure MI: • 1. Plate HeLa cells at 10,000/well in 100 μL/well in clear flat-bottom 96-well plates and incubate overnight. • 2. Immediately prior to treatment, dilute compounds in medium in a 96-well round-bottom plate. Make up all compounds at 5 times final desired concentration on cells, and serially dilute 1:2 across the plate ensuring that there is 100 μL of each concentration (start with 200 μl of the top concentration on the left of the plate). […] Treat cells by adding 25 μL from the compound dilution plate to triplicate wells. • 4. Incubate cells with compound for 24 hours. • 5. After 24 hours, fixation and staining is carried out as follows: • 6. Dilute 37% formaldehyde in PBS to give a 12.95% solution by adding 3.5 mL formaldehyde to 6.5 mL of PBS. • 7. Add 50 μL of formaldehyde fixation solution directly to each well of cells (which already contain 125 μL medium). • 8. Incubate at room temp for 10 minutes. • 9. Remove fixative and add 100 μL/well PBS+0.1% Triton X-100 for 10 minutes. • 10. Aspirate and add 100 μL/well PBS+1% BSA. • 11. Aspirate and add 50 μL/well of primary antibody (anti-PH3 [1:2000]/anti-MPM2 [1:1000]) diluted in PBS+1% BSA. Incubate for 1 hour. • 12. Wash×2 with 100 μL/well PBS+1% BSA. • 13. Add 50 μL/well of secondary antibody plus Hoechst stain (anti-rabbit Alexafluor 488 [1:500]; anti-mouse Alexafluor 546 [1:500]+Hoechst 33342 [1:2500 final concentration=4 μg/mL])diluted in PBS+1% BSA. Incubate for 1 hour. • 14. Wash twice with 100 μL/well PBS+1% BSA. • 15. Aspirate and add 100 μL/well PBS. Plates can be stored at 4° C. in PBS for several weeks before scanning on the Cellomics Arrayscan. […] Scan on Cellomics using Target Activation Bioapplication. • 17. MI data emerging from the Cellomic Bioapplication can be used to plot MI versus compound concentration, and subsequently used to generate an EC50 value for each compound using an appropriate graphing/curve-fitting package such as GraphPad Prism.

[1] = system: HCT116 cells (a mutant KRAS G-13D expressing cell line); assay: Drug resistance studies in HCT116 cells; settings: five times the half maximal growth inhibiting amount, twenty two days

SMILES	GI50 (KRAS G12V HeLa cell line) [nM]	GI50 (HCT116 cells) [nM]	GI50 (wild-type HeLa cell line) [nM]	% mitotic cells (HeLa cells) [%]	EC50 (HeLa cells) [nM]	formation of drug-resistant colonies [1]
CNCCNC(=O)c1cccc(-c2ccc(-c3ccc(Br)cc3)n2-c2ccccc2C(F)(F)F)c1 [Example 23]	80	390	240	79	740	
CN(C)CCCNC(=O)c1cccc(-c2ccc(-c3ccc(Br)cc3)n2-c2ccccc2C(F)(F)F)c1 [Example 24]	80	490	260	77	620	
CC[C@@H]1C(=O)N(C)c2cnc(Nc3ccc(C(=O)NC4CCN(C)CC4)cc3OC)nc2N1C1CCCC1 [Example B12536, 4-[[(7R)-8-cyclopentyl-7-ethyl-5,6,7,8-tetrahydro-5-methyl-6-oxo-2-pteridinyl]amino]-3-methoxy-N-(1-methyl-4-piperidinyl)benzamide, reference compound]						drug-resistant colonies were formed
